The record followed here is patent publication EP1399158B1, “NON-THERAPEUTIC METHOD OF SUPPRESSING OESTRUS IN MAMMALIAN NON-HUMAN ANIMAL” (Vetcare Oy, priority 2001, dated 2002).

Structures are written as SMILES.

The test system of data set [1] is beagle bitches. Kind of data set: Medical trial of oestrus suppression in beagle bitches (oestrus signs, mating behaviour, vaginal cytology, side effects). Type of data set: in vivo. Here is the method: (§1) A medical trial was conducted at University of Kuopio with six (6) beagle bitches the average weight of which was 10 kg and the age ranged from 1 year and 1 month to 3 years and 11 months. The dogs were given finrozole at a dose of 3 mg/dog/day from the first day of oestrus signs for 21 days. The development of oestrus signs were followed daily and serum samples collected twice a week. The sexual behaviour of a fertile male and the bitches was recorded. The male was allowed to mount and mate the bitches.

For data set [2], the system named is Estradiol-17-β and progesterone. Kind of data set: Hormonal analyses of serum samples (estradiol assay/DPC, Coat-A-Count Progesterone/DPC) in the trial. The following applies: six beagle bitches, 3 mg/dog/day for 21 days. Type of data set: in vivo. Here is the method: as §1
Hormonal analyses were carried out at Swedish University of Agricultural Sciences in the Department of Clinical Chemistry Estradiol-17-β (the modified estradiol assay/DPC) and progesterone (Coat-A-Count Progesterone /DPC) were analysed.

The mark [3] stands for this setting: six beagle bitches, 3 mg/dog/day for 21 days.

`N#Cc1ccc(C(C(O)Cc2ccc(F)cc2)n2cncn2)cc1` (single isomer, unassigned) [finrozole, 1-[1-(4-cyanophenyl)-3-(4-fluorophenyl)-2-hydroxypropyl]-1,2,4-triazole, diasteroisomer a + d]: in data set [1] (of the four bitches in which oestrus continued, fertile male allowed to mount and mate, 3 mg/dog/day for 21 days), the “bitches mated (oestrus continued)” value is recorded as “Three of them were mated”. Also, the bitches conceived result in data set [1] (of the three mated bitches, 3 mg/dog/day for 21 days) was “two conceived”. In data set [1] (setting [3]), the “oestrus signs according to vaginal cytology” value is listed as “no difference could be detected” and the “side effects during the treatment” value is reported as “No side effects were seen”. Moreover, the Oestrus signs entry in data set [1] (six beagle bitches, 3 mg/dog/day from the first day of oestrus signs for 21 days) was “disappeared in two bitches of six”. Besides, the “time after starting the treatment during which serum estrogen levels decreased” value in data set [2] was 4 to 13 days. For the same compound, the Progesterone levels result in data set [2] (serum) is on record as “increased in five bitches of six”. For the same compound, in data set [2] (serum samples twice a week), the serum estrogen levels entry is recorded as “decreased in all bitches”.
